“And” between values parts separate entries of the source, which are not always exact repeats. Equal entries are not always repeated.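 Values below derive from 48-hour exposures of cells grown in 96-well plates, with endpoints linearly interpolated between the two concentrations bracketing the appropriate inhibition level. At the GI50, growth is halved. TGI: total growth inhibition.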
Assays:
Assay in all cases: inhibition of tumour cell growth, NCI panel, 48 h
SK-MEL-5 melanoma = system: SK-MEL-5 melanoma
NCI-H460 lung = system: NCI-H460 lung
HT29 colon = system: HT29 colon
SNB-19 CNS = system: SNB-19 CNS
SF-295 CNS = system: SF-295 CNS
HL-60(TB) leukemia = system: HL-60(TB) leukemia
SR leukemia = system: SR leukemia
CAKI-1 renal = system: CAKI-1 renal
RPMI-8226 leukemia = system: RPMI-8226 leukemia
BT-549 breast = system: BT-549 breast

Structure (SMILES)	GI50 (SK-MEL-5 melanoma)	TGI (SK-MEL-5 melanoma)	GI50 (NCI-H460 lung)	TGI (NCI-H460 lung)	GI50 (HT29 colon)	TGI (HT29 colon)	GI50 (SNB-19 CNS)	TGI (SNB-19 CNS)	GI50 (SF-295 CNS)	TGI (SF-295 CNS)	GI50 (HL-60(TB) leukemia)	TGI (HL-60(TB) leukemia)	GI50 (SR leukemia)	TGI (SR leukemia)	GI50 (CAKI-1 renal)	TGI (CAKI-1 renal)	TGI (RPMI-8226 leukemia)	GI50 (BT-549 breast)	TGI (BT-549 breast)	GI50 (RPMI-8226 leukemia)
CCCCCCCCCCCCN=C(N)c1ccc(N2CCN(c3ccc(C(N)=NCCCCCCCCCCCC)cc3)CC2)cc1	10500 nM	21.1 µM	13.8 µM	> 50 µM	5680 nM	25.6 µM	11 µM	20.5 µM	7.66 µM	18.1 µM	2150 nM	> 50 µM	3800 nM	> 50 µM	32.3 µM	> 50 µM				
CC(=O)NNc1nc(C)c(C(=O)NNC(=O)C(=O)Nc2c([N+](=O)[O-])ccc(C)c2C)s1		> 100 µM		> 100 µM		> 100 µM		> 100 µM		> 100 µM		> 100 µM		> 100 µM		> 100 µM	> 100 µM			
CCCCCCCCCCCCCCCC(=O)OCCOCCOCCOCCOCCOC(=O)CCCCCCCCCCCCCCC		> 100 µM		> 100 µM		> 100 µM		> 100 µM		> 100 µM		> 100 µM		> 100 µM		> 100 µM	> 100 µM			
O=C1C=C(OCC=C(C(F)(F)F)C(F)(F)F)c2ccccc2C1=O	1510 nM	2.95 µM			2400 nM	5.47 µM	5.62 µM	19.5 µM	14.6 µM	30.3 µM	2440 nM	6.49 µM	2020 nM	7.43 µM	3.15 µM	10.4 µM	4.29 µM	2490 nM	6.64 µM	1630 nM
O=C(N/C(=C\c1ccccc1O)c1nc2ccccc2[nH]1)c1ccccc1		> 100 µM		> 100 µM		> 100 µM		> 100 µM								> 100 µM	> 100 µM			
NCCCNc1nc2ccccc2c2c(=O)c3cccc(Cl)c3sc12	1580 nM	2.94 µM							1.71 µM	3.14 µM			606 nM	2.99 µM	1.28 µM	2.68 µM		1450 nM	2.81 µM	
CC1C=CC(C(N)C(=O)O)O1 (stereo not given)		> 100 µM		> 100 µM		> 100 µM		> 100 µM		> 100 µM		> 100 µM		> 100 µM		> 100 µM	> 100 µM			
CCCCNC(=S)OCCC(C)CCCC(C)C (stereo not given)		> 100 µM		> 100 µM		> 100 µM		> 100 µM		> 100 µM		> 100 µM		> 100 µM		> 100 µM	> 100 µM			
CC(=O)c1ccccc1NC(=O)C(=O)C(C(=O)c1ccccc1-c1ccccc1)C1OC(=O)c2ccccc21 (stereo not given)		33.8 µM		35.3 µM		56.1 µM		58.9 µM		52.4 µM		81.2 µM		88.9 µM		> 100 µM	> 100 µM			
NS(=O)(=O)c1ccc(NC(=O)C2C(=O)C(=O)N(c3ccc(S(N)(=O)=O)cc3)C2=O)cc1 (stereo not given)		> 100 µM				> 100 µM		> 100 µM		> 100 µM				> 100 µM		> 100 µM	> 100 µM			
CCOC(=O)c1[nH]c2cc(OC)c(OC)cc2c1CN(C)C		> 100 µM		> 100 µM		> 100 µM		> 100 µM		> 100 µM		> 100 µM		> 100 µM		> 100 µM	> 100 µM			
O=C1C=C2CCCC2C(C(=O)O)(C(=O)O)C1 (stereo not given)		> 100 µM		> 100 µM		> 100 µM		> 100 µM		> 100 µM		> 100 µM				> 100 µM	> 100 µM			
Cc1ccc(N=C2N=C(N3CC(C)OC(C)C3)c3ccccc32)cc1 (stereo not given)		48.5 µM		> 100 µM		65 µM		> 100 µM		> 100 µM						51 µM	87.1 µM			
COc1c(I)c(OC)c2c(c1I)O[C@@H]1OCC[C@H]21		27.2 µM		56.2 µM		> 100 µM		> 100 µM		> 100 µM		55.6 µM		45.2 µM		46.1 µM	> 100 µM			
COc1ccc2c(c1)/C(=C\c1c(-c3cc(OC)ccc3OC)nc3sccn13)C(=O)N2			4.39 µM	> 100 µM	1370 nM	2.66 µM	1.72 µM	3.54 µM	5.31 µM and 18.2 µM	44.1 µM					3.82 µM	13.8 µM		4670 nM		3400 nM
COc1ccccc1/C=C\C(=O)C1COCN1 (stereo not given)		25.1 µM		> 100 µM		30.6 µM		33.9 µM		50.8 µM		> 100 µM				42.2 µM	7.53 µM			
Cc1ccc(/C=C/C(=O)c2sc(-n3nc(-c4ccccc4)cc3-c3ccccc3)nc2C)cc1		> 100 µM		> 100 µM		> 100 µM				> 100 µM		> 100 µM				> 100 µM	> 100 µM			
COc1cc2ncnc(Nc3ccc(Oc4ccnc(C)c4)c(C)c3)c2cc1NC(=O)CC1CCSS1 (stereo not given)	974 nM	1.99 µM					1.08 µM	2.49 µM			1280 nM	2.83 µM	365 nM	2.99 µM	1.31 µM	> 14.5 µM	3.31 µM	1200 nM	2.94 µM	1140 nM
O=C(Nc1cc(Cl)cc(Cl)c1)c1cccc(NC2=C(Cl)C(=O)N(Cc3ccccc3)C2=O)c1	16600 nM	34.8 µM	33.2 µM	> 100 µM			54 µM	> 100 µM	34.2 µM	> 100 µM			6020 nM	80.8 µM	30.3 µM	> 100 µM	> 100 µM			2310 nM
CCCCCCCCCCNCCSS(=O)(=O)O	2140 nM	5.59 µM	1.72 µM	3.22 µM	2210 nM	4.79 µM	1.72 µM	3.24 µM	1.83 µM	3.65 µM	1760 nM	3.74 µM			14.5 µM	33.3 µM	5.7 µM	6150 nM	21.8 µM	2200 nM
CCc1cc2c(O)c(c1)Cc1cc(CC)cc(c1O)Cc1cc(CC)cc(c1O)Cc1cc(CC)cc(c1O)Cc1cc(CC)cc(c1O)Cc1cc(CC)cc(c1O)Cc1cc(CC)cc(c1O)C2		> 100 µM		> 100 µM		> 100 µM		71.7 µM		> 100 µM		> 100 µM					> 100 µM			
